Literature values as cited in paper PMC3226709 (Journal of the American Chemical Society, 2011).

Tested on: GSTO1
Conditions: read-out: IC50 for GSTO1 inhibition

For `CC(=O)Oc1ccc2c(c1)Oc1cc(OC(C)=O)ccc1C21OC(=O)c2cc(CCl)ccc21` [CellTracker Green, 5-chloromethylfluorescein diacetate], the IC50 is listed as 0.051 µM.
